“Also recorded” adds a separate entry of the source.
Assays:
[1] = system: TNBC cells (MDA-MB-231, MDA-MB-468, SUM159, 4T1, EMT6); assay: Clonogenic (colony-formation) assay; type: cell-based
Procedure: We performed a clonogenic assay to check the effect of SU056 on clonal expansion potential of MDA-MB-231, MDA-MB-468, SUM159, 4T1, EMT6, and E0771 cells on tissue culture plates. MDA-MB-231 (1000 cells), MDA-MB-468 (1000 cells), SU159 (300 cells), 4T1 (300 cells), and EMT6 (300 cells), were seeded and grown for 24 h in complete media onto 12-well culture plate. Cells were treated with the specific concentrations of SU056 for 7–10 days in complete media. Plates were processed for crystal violet staining, and the number of colonies was counted for each well. Colonies were scanned for confluency area using a Tecan multimode plate reader.

[2] = biological target: T1, YB-1 and RPL11 interaction (Homo sapiens, UniProt P67809); assay: Immunoprecipitation of YB-1; type: cell-based; details: MDA-MB-231 and MDA-MB-468, 1 μM
T1 construct: Immunoprecipitation of YB-1 from protein lysates of SU056-treated MDA-MB-231 and MDA-MB-468 cells using YB-1 antibody; endogenous in cells; host or cells: MDA-MB-231; MDA-MB-468
Procedure: MDA-MB-231 and MDA-MB-468 cells with and without SU056 (1 μM) treatment for 6 and 12 h respectively and were lysed using M-PER lysis solution (Thermo Scientific, #78503), supplemented with Halt protease and phosphatase inhibitor cocktail (Thermo Scientific, #78440). Precleaned 300 μg protein lysate was incubated overnight at 4°C with 3 μg YB-1 (Abcam, #ab76149) on nutating rocker. The antibody was pulled down using 20 μL Protein A/G magnetic beads (Thermo scientific #88802). After three washings, beads were resuspended in 2X SDS sample buffer followed by heating at 90°C–100°C for 5 min. Samples were resolved and probed with indicated antibodies as described in immunoblotting assay.

[3] = Maximum tolerated dose / acute oral toxicity; type: in vivo, mouse; details: for Body Weight, Mean / Toxicity (death/test): ICR (Female) mice
Procedure: (§1) The acute oral toxicity of SU056 was evaluated by Eurofins lab services (Eurofins discovery). The oral toxicity study was performed in female rats and mice for multiple escalating doses (100 mg/kg, 200 mg/kg, 400 mg/kg). Rats and mice were monitored for their behavioral, neurological and autonomic signs after administration of SU056. The response was recorded as 0; no adverse effect, ±1 mild adverse effect, ±2, moderate adverse effect and ±3 severe adverse effect.

[4] = Maximum tolerated dose / acute oral toxicity; type: in vivo; parameters: key to Behavioral, Neurologic and Autonomic signs, Response, all listed signs: 0; no adverse effect; ±1 mild adverse effect; ±2, moderate adverse effect; ±3 severe adverse effect; details: for Body Weight, Mean / Toxicity (death/test) / Behavioral, Neurologic and Autonomic signs, Response, all listed signs: Female SD rats; for Behavioral, Neurologic and Autonomic signs, Response, all listed signs: observation time 1 hr, 3 animals
Procedure: Female Sprague-Dawley rats (Charles river laboratories, strain code: Crl:CD(SD) 001, 8–10 weeks old) were used by the eurofins lab services (Eurofins Discovery) to test the toxicity of SU056.
as §1

[5] = system: translation machinery molecules (RPLs, RPSs, eIFs) in MDA-MB-231-YB-1 knockdown cells; assay: CETSA in YB-1 knockdown cells; type: binding, human; details: YB-1 knockdown vs scrambled control cells
Source text: In the second CETSA experiment with MDA-MB-231- YB-1 knockdown cells, the Orbitrap Eclipse Tribrid mass spectrometer parameters consisted of setting the cycle time at Top-speed at 1 s, the mass scan range set between 375 and 1800 m/z, and a mass resolution of 50,000. The normalized AGC target and maximum injection time was set to standard and auto respectively. The precursor ions were selected from highest to lowest charge state, sorted by the lowest m/z, and fragmented using Higher Energy Collisional Dissociation (HCD) with a fixed collisional energy of 38%. Dynamic exclusion was enabled for 60 s with a mass tolerance of ±10 ppm. The normalized AGC target set to 200% with a maximum injection time of 86 ms. MS2 fragments were detected in the Orbitrap with a mass resolution of 50,000 and scan range window of 110–1800 m/z.
Proteins were quantified using individual spectra matched peptides based on a sum-based bootstrap algorithm, which used the TMT reporter ion intensity after correcting for isotope impurities with Proteome Discoverer 2.4. The protein levels were compared between the vehicle and SU056 treated samples. The lowest temperature was used as a reference to calculate the log2 ratio of the soluble fraction signal at each temperature, and the signal at each temperature was compared to the […] temperature to estimate the percentage of signal lost in the soluble fraction. […]

SMILES: O=C1OCC2=C1C(c1cccc(F)c1)c1cc3c(cc1N2CCO)OCO3 (stereo not drawn) [SU056, 9-(3-fluorophenyl)-5-(2-hydroxyethyl)-6,9-dihydro-[1,3]dioxolo[4,5-g]furo[3,4-b]quinolin-8(5H)-one]
- clonogenic potential ([1]; 0.5 μM, all TNBC cell lines): strong suppression
- number of colonies formed compared to untreated controls ([1]; 0.1, 0.25, and 0.5 μM, 7–10 days): significantly decreased
- YB-1 and RPL11 interaction [2]: inhibits
- Body Weight, Mean ([3]; 100 mg/kg, 0 hr): 23.0 gm
- Toxicity (death/test) ([3]; 100 mg/kg, 15 min): 0/3
- Toxicity (death/test) ([3]; 100 mg/kg, 1 hr): 0/3
- Body Weight, Mean ([3]; 100 mg/kg, 24 hr): 23.0 gm
- Toxicity (death/test) ([3]; 100 mg/kg, 24 hr): 0/3
- Body Weight, Mean ([3]; 100 mg/kg, 48 hr): 23.3 gm
- Toxicity (death/test) ([3]; 100 mg/kg, 48 hr): 0/3
- Body Weight, Mean ([3]; 100 mg/kg, 72 hr): 24.3 gm
- Toxicity (death/test) ([3]; 100 mg/kg, 72 hr): 0/3
- Body Weight, Mean ([3]; 200 mg/kg, 0 hr): 23.7 gm
- Toxicity (death/test) ([3]; 200 mg/kg, 15 min): 0/3
- Toxicity (death/test) ([3]; 200 mg/kg, 1 hr): 0/3
- Body Weight, Mean ([3]; 200 mg/kg, 24 hr): 24.0 gm
- Toxicity (death/test) ([3]; 200 mg/kg, 24 hr): 0/3
- Body Weight, Mean ([3]; 200 mg/kg, 48 hr): 24.0 gm
- Toxicity (death/test) ([3]; 200 mg/kg, 48 hr): 0/3
- Body Weight, Mean ([3]; 200 mg/kg, 72 hr): 24.3 gm
- Toxicity (death/test) ([3]; 200 mg/kg, 72 hr): 0/3
- Body Weight, Mean ([3]; 400 mg/kg, 0 hr): 22.7 gm
- Toxicity (death/test) ([3]; 400 mg/kg, 15 min): 0/3
- Toxicity (death/test) ([3]; 400 mg/kg, 1 hr): 0/3
- Body Weight, Mean ([3]; 400 mg/kg, 24 hr): 22.7 gm
- Toxicity (death/test) ([3]; 400 mg/kg, 24 hr): 0/3
- Body Weight, Mean ([3]; 400 mg/kg, 48 hr): 23.3 gm
- Toxicity (death/test) ([3]; 400 mg/kg, 48 hr): 0/3
- Body Weight, Mean ([3]; 400 mg/kg, 72 hr): 24.3 gm
- Toxicity (death/test) ([3]; 400 mg/kg, 72 hr): 0/3
- behavioral, neurological, and anatomical signs of toxicity and morbidity ([3]; mice, 100, 200, and 400 mg/kg oral gavage, 72 h): not affected; also recorded: no observable changes
- Body Weight, Mean ([4]; 100 mg/kg, 0 hr): 212.7 gm
- Toxicity (death/test) ([4]; 100 mg/kg, 15 min): 0/3
- Toxicity (death/test) ([4]; 100 mg/kg, 1 hr): 0/3
- Body Weight, Mean ([4]; 100 mg/kg, 24 hr): 216.7 gm
- Toxicity (death/test) ([4]; 100 mg/kg, 24 hrs): 0/3
- Body Weight, Mean ([4]; 100 mg/kg, 48 hr): 219.0 gm
- Toxicity (death/test) ([4]; 100 mg/kg, 48 hrs): 0/3
- Body Weight, Mean ([4]; 100 mg/kg, 72 hr): 229.7 gm
- Toxicity (death/test) ([4]; 100 mg/kg, 72 hrs): 0/3
- Behavioral, Neurologic and Autonomic signs, Response, all listed signs ([4]; 100 mg/kg): 0
- Body Weight, Mean ([4]; 200 mg/kg, 0 hr): 204.3 gm
- Toxicity (death/test) ([4]; 200 mg/kg, 15 min): 0/3
- Toxicity (death/test) ([4]; 200 mg/kg, 1 hr): 0/3
- Body Weight, Mean ([4]; 200 mg/kg, 24 hr): 208.0 gm
- Toxicity (death/test) ([4]; 200 mg/kg, 24 hrs): 0/3
- Body Weight, Mean ([4]; 200 mg/kg, 48 hr): 211.0 gm
- Toxicity (death/test) ([4]; 200 mg/kg, 48 hrs): 0/3
- Body Weight, Mean ([4]; 200 mg/kg, 72 hr): 215.0 gm
- Toxicity (death/test) ([4]; 200 mg/kg, 72 hrs): 0/3
- Behavioral, Neurologic and Autonomic signs, Response, all listed signs ([4]; 200 mg/kg): 0
- Body Weight, Mean ([4]; 400 mg/kg, 0 hr): 204.0 gm
- Toxicity (death/test) ([4]; 400 mg/kg, 15 min): 0/3
- Toxicity (death/test) ([4]; 400 mg/kg, 1 hr): 0/3
- Body Weight, Mean ([4]; 400 mg/kg, 24 hr): 200.0 gm
- Toxicity (death/test) ([4]; 400 mg/kg, 24 hrs): 0/3
- Body Weight, Mean ([4]; 400 mg/kg, 48 hr): 209.7 gm
- Toxicity (death/test) ([4]; 400 mg/kg, 48 hrs): 0/3
- Body Weight, Mean ([4]; 400 mg/kg, 72 hr): 216.7 gm
- Toxicity (death/test) ([4]; 400 mg/kg, 72 hrs): 0/3
- Behavioral, Neurologic and Autonomic signs, Response, all listed signs ([4]; 400 mg/kg): 0
- behavioral, neurological, and anatomical signs of toxicity and morbidity ([4]; rats, 100, 200, and 400 mg/kg oral gavage, 72 h): not affected; also recorded: no observable changes
- thermal stability of translation machinery molecules (RPLs, RPSs, and eIFs) [5]: does not increase

Reference: article PMC11148772, “Inhibition of protein translational machinery in triple-negative breast cancer as a promising therapeutic strategy” (Cell Reports Medicine, 2024)
